Measurements published in patent US12616697B2, “Methods of treatment with myosin modulator” (MyoKardia, Inc., priority 2020, dated 2026).

Experiments:
[1] = system: Yucatan mini-pigs with a heterozygous MYH7 R403Q mutation; experiment: Chronic MYK-581 in mini-pig genetic model of non-obstructed HCM (cMR imaging, invasive hemodynamics, dobutamine challenge); assay type: in vivo
Method: The mini-pigs were treated for at least 12 weeks and were evaluated as shown in Schematic 1 below. […] After ˜14 weeks of treatment, all pigs underwent in vivo cMR imaging for the assessment of LV function and geometry, as well as of myocardial composition via of Late Gadolinium Enhancement (LGE) and T1 mapping techniques including extracellular volume (ECV) assessments. In addition, a subset of animals (MYK: n=6, CTRL: n=5) also underwent terminal invasive hemodynamics assessments, including cardiac output (CO, via thermodilution), load-independent systolic/diastolic function (via LV pressure-volume relationships), and β-adrenergic (β-AR) cardiac reserve (via dobutamine at 5 ug/kg/min IV).
The mini-pig model can be obtained following the method disclosed in a presentation entitled “A Minipig Genetic Model of Hypertrophic Cardiomyopathy Uncovers the Pathophysiological Mechanisms of Disease Evolution”, by E. Green et al., at University of Iowa, Carver College of Medicine.

[2] = biological target: T1, bovine cardiac synthetic myosin filaments (Bos taurus, UniProt Q9BE39); experiment: DRX/SRX ATPase rate and SRX population in cardiac synthetic myosin filaments; assay type: biochemical; conditions: over a range of concentrations; the two compounds compared
T1 construct: bovine cardiac synthetic myosin filaments; from tissue; host or cells: bovine heart (inferred from 'bovine cardiac'; the preparation is not described)

[3] = system: anaesthetized rats; experiment: Counteraction of mavacamten effects in anaesthetized rats in vivo; design: species or system rat
From the text: (§1) Additional supportive measures, e.g., intravenous volume supplementation and/or the use of arterial vasoconstrictor agents (a adrenergic agonists) may complement the use of a β adrenergic agonist.

[4] = system: conscious Sprague-Dawley rats; experiment: Mavacamten-induced cardio-depression with positive inotropic challenges, echocardiography; assay type: in vivo, rat; conditions: inotropic challenge 3 hrs after MAVA 4 mg/kg PO
Method: Methods: The responsiveness of mavacamten-induced cardio-depression to positive inotropic challenges was assessed in a set of conscious Sprague-Dawley rats. In these animals, functional reserve was assessed via either dobutamine (+DOB, 10 ug/kg/min IV for 10 min, n=7) or levosimendan (+LEVO, 0.3 μmol/kg IV over […]; n=6) challenges given 3 hrs following a single-dose administration of MAVA (at 4 mg/kg, PO). Cardiac function/geometry were recorded and compared at three separate time-points/days: prior to dosing (i.e., at baseline) and at 3 hrs post-dosing both before as well as during the inotropic challenge; in order to account for the levosimendan-induced changes in loading conditions, an additional echocardiographic examination was performed following acute preload-restoration in LEVO-treated rats (+LEVO/F, 0.9% NaCl at 30 mL/kg/hr IV).
In these experiments, left-ventricular fractional shortening (FS), an index of systolic performance, as well as LV dimensions/volumes and heart rates were measured using a high-frequency transducer and parasternal long-axis transthoracic views (Vevo2100, VisualSonic). FS was defined as the end-diastole normalized change in internal dimensions/diameter of the left ventricle between end-systole (LVESd) and end-diastole (LVEDd) (i.e., FS=100·[LVEDd−LVESd]/LVEDd). LV volumes were derived assuming a Teichholz model (LVV=7·[2.4+LVid]−1·LVid3).

[5] = system: conscious fully-instrumented dogs with normal cardiac function; experiment: Cardiac reserve under acute β-AR (dobutamine) challenges in conscious instrumented dogs; assay type: in vivo, dog; conditions: before and under acute mavacamten treatment
Method: In addition, the effects of MAVA (at 1.5 mg/kg PO, via gavage) on cardiac reserve were evaluated via acute β-AR challenges (dobutamime: 2, 5, and 10 ug/kg/min IV) in conscious fully-instrumented (LVPV group) dogs with normal cardiac function (n=8). These challenges were performed before/after dosing (+3-hour) in control- and MAVA-treated animals both under normal cardiac physiological conditions (n=4) and under (mild) concomitant cardio-depression induced via either selective β-AR blockade (+BB, metoprolol 0.5±0.1 mg/kg PO tid; n=4) or L-type Ca2+-channel blockade (+CCB, verapamil at 5±1 mg/kg PO tid; n=4); pharmacological blockades were established for 7 days prior to the MAVA treatment. Both peak and dose-responses were evaluated at steady state.
Throughout these experiments, analog signals were digitally acquired (1000 Hz) and recorded continuously with a data acquisition/analysis system (IOX; EMKA Technologies). Heart rate (HR), end-systolic (ESP) and end-diastolic pressures (EDP), as well as the peak rates of pressure rise/decline (dP/dtmax and dP/dtmin), the contractility index (CI: dP/dt/P at dP/dtmax), and the time-constant of myocardial relaxation (tau1/2, time for 50% decay from dP/dtmin) were derived from the LV pressure signal. Meanwhile, the end-systolic (ESV) and end-diastolic volumes (EDV) were measured from the LV volume signal derived from the implanted myocardial crystals. LV volumes were derived assuming a Teichholz model, and stroke volume (SV=EDV−ESV), ejection fraction (EF=SV/EDV), as well as cardiac output (CO=SV·HR) were calculated; in a subset of animals, SV and CO values were verified from data derived from the implanted aortic flow […]. […] The slopes of the preload-recruitable stroke work (PRSW; stroke work vs. EDV) and the end-systolic pressure-volume relationships (ESPVR; end-systolic elastance, Ees) were derived by software using linear models (IOX; EMKA Technologies), and were used as load-independent inotropic indices. Ventricular load was estimated by the effective arterial elastance (Ea=ESP/SV). […]

[6] = system: isolated adult rat ventricular myocytes; experiment: Counteraction of mavacamten effects in isolated myocytes in vitro; assay type: cell-based
From the text: as §1

T1 sequence (Q9BE39 whole entry): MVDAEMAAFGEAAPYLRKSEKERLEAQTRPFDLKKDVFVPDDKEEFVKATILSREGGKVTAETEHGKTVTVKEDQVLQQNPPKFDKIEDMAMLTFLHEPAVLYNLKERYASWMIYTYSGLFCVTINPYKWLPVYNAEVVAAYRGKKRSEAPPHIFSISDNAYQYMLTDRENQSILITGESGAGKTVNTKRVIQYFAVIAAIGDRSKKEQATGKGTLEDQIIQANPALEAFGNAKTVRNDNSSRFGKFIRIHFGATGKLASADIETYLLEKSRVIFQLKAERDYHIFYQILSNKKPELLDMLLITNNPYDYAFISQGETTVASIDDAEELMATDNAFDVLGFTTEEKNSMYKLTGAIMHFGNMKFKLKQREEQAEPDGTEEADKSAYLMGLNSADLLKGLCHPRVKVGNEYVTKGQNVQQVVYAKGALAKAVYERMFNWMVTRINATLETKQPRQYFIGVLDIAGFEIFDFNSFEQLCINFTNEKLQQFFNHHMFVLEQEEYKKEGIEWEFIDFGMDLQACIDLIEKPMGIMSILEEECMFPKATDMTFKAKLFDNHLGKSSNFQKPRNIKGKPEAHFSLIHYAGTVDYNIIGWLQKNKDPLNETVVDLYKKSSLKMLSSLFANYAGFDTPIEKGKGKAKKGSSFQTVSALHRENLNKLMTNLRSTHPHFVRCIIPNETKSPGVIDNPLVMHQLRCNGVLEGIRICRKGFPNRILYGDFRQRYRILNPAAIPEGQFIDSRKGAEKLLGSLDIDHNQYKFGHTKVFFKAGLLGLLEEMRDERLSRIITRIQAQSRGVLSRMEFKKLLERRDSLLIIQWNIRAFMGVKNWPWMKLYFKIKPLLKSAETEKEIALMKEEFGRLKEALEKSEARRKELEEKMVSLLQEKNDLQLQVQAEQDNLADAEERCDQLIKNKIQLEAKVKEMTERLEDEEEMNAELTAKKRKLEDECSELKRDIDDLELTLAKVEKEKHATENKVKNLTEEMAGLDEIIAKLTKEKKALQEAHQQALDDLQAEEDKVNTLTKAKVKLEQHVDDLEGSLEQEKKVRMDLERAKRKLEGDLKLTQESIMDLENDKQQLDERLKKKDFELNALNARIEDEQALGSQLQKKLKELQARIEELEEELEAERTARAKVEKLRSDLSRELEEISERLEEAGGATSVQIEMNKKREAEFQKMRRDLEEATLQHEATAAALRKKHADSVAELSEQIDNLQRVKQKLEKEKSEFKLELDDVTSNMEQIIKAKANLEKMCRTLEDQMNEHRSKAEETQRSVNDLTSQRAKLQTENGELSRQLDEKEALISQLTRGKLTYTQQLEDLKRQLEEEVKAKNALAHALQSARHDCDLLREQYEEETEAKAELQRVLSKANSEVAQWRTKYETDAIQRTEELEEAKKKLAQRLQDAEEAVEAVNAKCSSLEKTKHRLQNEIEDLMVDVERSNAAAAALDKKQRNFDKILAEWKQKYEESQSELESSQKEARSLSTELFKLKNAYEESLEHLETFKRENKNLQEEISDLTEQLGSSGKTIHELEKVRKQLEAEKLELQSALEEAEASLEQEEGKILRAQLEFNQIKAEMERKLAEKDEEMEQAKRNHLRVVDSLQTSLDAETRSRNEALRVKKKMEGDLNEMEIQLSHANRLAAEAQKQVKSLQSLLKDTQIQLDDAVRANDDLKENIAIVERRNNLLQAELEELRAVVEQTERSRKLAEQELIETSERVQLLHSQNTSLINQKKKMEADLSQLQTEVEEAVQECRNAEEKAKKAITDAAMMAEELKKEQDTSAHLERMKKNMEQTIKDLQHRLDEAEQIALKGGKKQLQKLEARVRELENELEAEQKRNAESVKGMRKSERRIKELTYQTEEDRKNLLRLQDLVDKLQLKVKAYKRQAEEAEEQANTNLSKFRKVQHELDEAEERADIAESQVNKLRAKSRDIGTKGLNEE
T1 sequence (P85100 whole entry partner): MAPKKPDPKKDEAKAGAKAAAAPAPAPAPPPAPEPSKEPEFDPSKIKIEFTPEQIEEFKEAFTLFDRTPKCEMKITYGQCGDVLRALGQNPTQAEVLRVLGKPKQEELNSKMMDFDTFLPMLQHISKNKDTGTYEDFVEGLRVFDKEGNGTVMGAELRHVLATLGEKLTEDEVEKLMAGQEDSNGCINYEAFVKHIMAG
T1 sequence (Q3SZE5 whole entry partner): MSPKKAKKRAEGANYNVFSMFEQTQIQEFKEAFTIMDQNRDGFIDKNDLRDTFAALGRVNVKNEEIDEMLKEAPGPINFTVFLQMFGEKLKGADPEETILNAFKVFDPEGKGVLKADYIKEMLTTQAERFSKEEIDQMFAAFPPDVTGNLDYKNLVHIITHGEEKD

With `CC(C)n1c(=O)cc(N[C@@H](C)c2cccc(F)c2)[nH]c1=O` [MYK-581, (S)-6-((1-(3-fluorophenyl)ethyl)amino)-3-isopropylpyrimidine-2,4(1H,3H)-dione] the “CO (cardiac output)” value ([1]; chronic treatment) was “preserving CO”, the “CO change, β-AR cardiac reserve” value ([1]; dobutamine challenge, control +26±2) was “+60±8%” and the T1-times ([1]; vs control) was “lower T1-times”. The “DRX ATPase rate and SRX ATPase Rate (as a fraction of control)” value [2] was “similar”.
`CC(CCc1ccc(O)cc1)NCCc1ccc(O)c(O)c1` (stereo not drawn) [dobutamine] was tested, and the “pharmacologic effects of mavacamten counteracted” value [3] was “can be counteracted”, the “echocardiography-derived indices of systolic function after mavacamten” value [4] was “successfully rescued/restored” and the stroke-volume/cardiac output recruitments [5] was “comparable stroke-volume/cardiac output recruitments”.
`CC(C)NCC(O)c1ccc(O)c(O)c1` (stereo not drawn) [isoproterenol] was tested, and the “pharmacologic effects of mavacamten counteracted” value [6] was “can be counteracted”.
In the case of `C[C@@H]1CC(=O)NN=C1c1ccc(NN=C(C#N)C#N)cc1` [levosimendan], the “echocardiography-derived indices of systolic function after mavacamten” value [4] is reported as “successfully rescued/restored”.
